{"source": "patent US20260263553A1", "about": "“METHODS OF TREATING A LOCALIZED INFECTION WITH LOCALLY ADMINISTERED ANTIBIOTICS” (Osteal Therapeutics, Inc., priority 2023, published 2026)", "key": {"[1]": {"conditions": "in vivo; cited from earlier work"}, "common PJI organisms": {"test_system": "common PJI organisms", "assay": "Minimum biofilm eradication concentration (MBEC)", "assay_type": "cell-based", "conditions": "multiple common PJI organisms", "excerpt": "The formation of biofilm, a frequent occurrence in infected wounds with a medical device in situ such as PJI, BII, or FRI, begins early after onset of infection and provides an additional mechanism of resistance to antibiotic therapy. It is well established that the organisms in a mature biofilm structure, formed in a matter of days or a few weeks, are not susceptible to common antibiotics at the typical MIC of planktonic counterparts. […] The concentration at which eradication of an organism in a biofilm is accomplished is known as the minimum biofilm eradication concentration (MBEC) for the specific antimicrobial agent and organism tested. MBEC is not the same for all antimicrobial agents used to treat the same organism, nor is it the same for one antimicrobial agent applied to different strains or organisms."}, "[2]": {"assay": "Serum concentrations during 7-day local irrigation of the infected joint (PJI clinical investigation)", "assay_type": "in vivo, human", "conditions": "daily dose 2.6 g at 2,500 mcg/mL by irrigation for 7 days", "protocol": "Irrigation of vancomycin and tobramycin within the manufacturer's recommended systemic dose for the treatment of PJI has been investigated clinically. A daily dose of 2.6 g vancomycin at a concentration of 2,500 mcg/mL and a daily dose of 80 mg of tobramycin at 1,600 mcg/mL were administered by irrigation to the infected joint for 7 days following stage one surgery of a two-stage exchange arthroplasty treatment. […] The serum concentrations of vancomycin over a 7-day period for 37 human subjects who received local irrigation of 50 cc at a concentration of 2,500 mcg/mL intermittently are shown in FIG. 6."}, "[3]": {"conditions": "instillation of 50,000-100,000 mcg/mL once or twice daily into the joint space; cited from earlier work"}}}
{"molecule": "NC[C@H]1O[C@H](O[C@H]2[C@H](O)[C@@H](O[C@H]3O[C@H](CO)[C@@H](O)[C@H](N)[C@H]3O)[C@H](N)C[C@@H]2N)[C@H](N)C[C@@H]1O", "note": "[tobramycin]", "values": [{"measurement": "maximum safe level, peak serum concentrations", "setting": "[1]", "value": 10, "unit": "µg/mL"}, {"measurement": "sustained trough levels associated with toxicity", "setting": "[1]", "value": "> 2", "unit": "µg/mL"}]}
{"molecule": "CN[C@H](CC(C)C)C(=O)N[C@H]1C(=O)N[C@@H](CC(N)=O)C(=O)N[C@H]2C(=O)N[C@H]3C(=O)N[C@H](C(=O)N[C@H](C(=O)O)c4cc(O)cc(O)c4-c4cc3ccc4O)[C@H](O)c3ccc(c(Cl)c3)Oc3cc2cc(c3O[C@@H]2O[C@H](CO)[C@@H](O)[C@H](O)[C@H]2O[C@H]2C[C@](C)(N)[C@H](O)[C@H](C)O2)Oc2ccc(cc2Cl)[C@H]1O", "note": "[vancomycin]", "values": [{"measurement": "MBEC", "setting": "common PJI organisms", "value": "greater than 4,000 mcg/mL"}, {"measurement": "maximum safe level, trough serum concentrations", "setting": "[1]", "value": 30, "unit": "µg/mL"}, {"measurement": "serum concentration levels", "setting": "[2]", "value": "well below the safe serum concentration"}, {"measurement": "serum concentrations", "setting": "[3]", "value": "serum concentrations exceeding safe limits in multiple patients"}]}
